“Also recorded” adds a separate entry of the source.
How the values were obtained:
[1] = biological target: T1, TAP (core-TAP1mVenus/core-TAP2mCerulean containing crude membranes from Pichia pastoris) (Homo sapiens, UniProt Q03518+Q03519); assay: Filter-based peptide competition assay; assay type: binding; conditions: 100 μM inhibitor; illumination at 365 nm
T1 sequence (Q03518 167-748 limits assumed): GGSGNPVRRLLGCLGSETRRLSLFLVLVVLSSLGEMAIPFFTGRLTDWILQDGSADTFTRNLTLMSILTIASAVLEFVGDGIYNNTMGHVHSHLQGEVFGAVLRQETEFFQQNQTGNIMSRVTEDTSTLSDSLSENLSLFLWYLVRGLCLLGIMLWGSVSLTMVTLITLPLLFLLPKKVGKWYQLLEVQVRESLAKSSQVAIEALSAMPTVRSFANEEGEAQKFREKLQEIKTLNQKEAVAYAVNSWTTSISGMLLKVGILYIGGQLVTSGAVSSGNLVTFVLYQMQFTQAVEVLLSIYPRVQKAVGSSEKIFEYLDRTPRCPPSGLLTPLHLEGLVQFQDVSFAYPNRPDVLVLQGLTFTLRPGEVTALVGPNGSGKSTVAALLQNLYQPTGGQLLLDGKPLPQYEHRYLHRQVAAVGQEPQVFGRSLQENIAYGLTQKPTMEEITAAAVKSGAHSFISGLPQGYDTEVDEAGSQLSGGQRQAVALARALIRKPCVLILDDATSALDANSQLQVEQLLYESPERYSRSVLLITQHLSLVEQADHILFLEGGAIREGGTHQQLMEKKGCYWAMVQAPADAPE
T1 sequence (Q03519 125-686 limits assumed): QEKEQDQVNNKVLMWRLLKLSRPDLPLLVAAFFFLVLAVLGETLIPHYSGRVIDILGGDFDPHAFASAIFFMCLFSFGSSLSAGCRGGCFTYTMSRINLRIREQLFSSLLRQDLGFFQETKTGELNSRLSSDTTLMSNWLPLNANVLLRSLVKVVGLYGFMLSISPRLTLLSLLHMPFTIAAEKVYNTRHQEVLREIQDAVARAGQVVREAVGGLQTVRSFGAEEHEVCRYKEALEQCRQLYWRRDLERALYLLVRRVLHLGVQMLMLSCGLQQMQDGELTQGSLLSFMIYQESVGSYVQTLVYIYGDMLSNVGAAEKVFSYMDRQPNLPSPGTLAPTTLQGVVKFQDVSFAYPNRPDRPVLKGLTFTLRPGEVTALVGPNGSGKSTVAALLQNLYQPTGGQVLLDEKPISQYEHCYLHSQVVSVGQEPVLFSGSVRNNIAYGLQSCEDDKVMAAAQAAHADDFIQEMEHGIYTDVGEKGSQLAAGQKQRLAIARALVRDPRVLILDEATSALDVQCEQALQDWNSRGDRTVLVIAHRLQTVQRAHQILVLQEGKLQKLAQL

TAP = TAP (Homo sapiens, UniProt Q03518+Q03519); assay: TAP-dependent peptide transport of NST-F in Raji microsomes; assay type: biochemical; conditions: read-out: inhibition of TAP-dependent peptide translocation before illumination
TAP, sequence (Q03518 whole entry): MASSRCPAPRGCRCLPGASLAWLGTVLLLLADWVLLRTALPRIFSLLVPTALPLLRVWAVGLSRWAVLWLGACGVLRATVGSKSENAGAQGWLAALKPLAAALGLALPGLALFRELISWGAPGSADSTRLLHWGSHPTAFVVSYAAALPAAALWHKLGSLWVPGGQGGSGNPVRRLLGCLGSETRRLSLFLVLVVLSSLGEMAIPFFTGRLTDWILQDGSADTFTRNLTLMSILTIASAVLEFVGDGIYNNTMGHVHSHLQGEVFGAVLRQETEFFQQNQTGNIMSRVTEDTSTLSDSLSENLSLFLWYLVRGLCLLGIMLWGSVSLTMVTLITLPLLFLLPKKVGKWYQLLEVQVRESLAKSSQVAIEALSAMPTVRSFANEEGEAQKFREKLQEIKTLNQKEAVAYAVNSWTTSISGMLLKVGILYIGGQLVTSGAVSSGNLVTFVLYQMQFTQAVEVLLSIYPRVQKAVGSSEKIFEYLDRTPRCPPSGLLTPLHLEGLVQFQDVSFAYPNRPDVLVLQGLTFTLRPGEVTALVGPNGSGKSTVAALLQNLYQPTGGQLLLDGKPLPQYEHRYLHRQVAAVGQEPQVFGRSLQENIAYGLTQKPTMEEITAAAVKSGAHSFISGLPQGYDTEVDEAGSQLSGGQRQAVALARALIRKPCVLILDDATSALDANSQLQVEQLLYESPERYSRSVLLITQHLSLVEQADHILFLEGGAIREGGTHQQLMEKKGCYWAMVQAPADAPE
TAP, sequence (Q03519 whole entry): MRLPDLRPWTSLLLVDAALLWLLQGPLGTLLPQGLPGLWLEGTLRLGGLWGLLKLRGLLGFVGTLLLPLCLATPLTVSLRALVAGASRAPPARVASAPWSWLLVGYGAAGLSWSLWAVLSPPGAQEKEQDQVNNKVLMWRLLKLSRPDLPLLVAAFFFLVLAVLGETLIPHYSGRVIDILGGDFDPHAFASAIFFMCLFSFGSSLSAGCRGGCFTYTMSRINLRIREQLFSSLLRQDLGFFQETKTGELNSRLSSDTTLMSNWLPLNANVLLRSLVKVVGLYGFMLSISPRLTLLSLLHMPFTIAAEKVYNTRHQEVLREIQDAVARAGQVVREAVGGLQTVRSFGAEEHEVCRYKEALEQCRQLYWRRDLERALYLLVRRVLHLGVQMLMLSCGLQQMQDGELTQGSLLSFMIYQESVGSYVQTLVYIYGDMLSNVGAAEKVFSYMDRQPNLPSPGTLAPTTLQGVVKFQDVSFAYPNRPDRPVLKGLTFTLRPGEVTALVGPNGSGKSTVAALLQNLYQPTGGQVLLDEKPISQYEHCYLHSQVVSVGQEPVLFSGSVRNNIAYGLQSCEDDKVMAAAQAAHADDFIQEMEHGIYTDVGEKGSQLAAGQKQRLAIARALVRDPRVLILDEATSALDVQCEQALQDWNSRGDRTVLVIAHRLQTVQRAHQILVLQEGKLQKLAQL
TAP, sequence (O15533 21-448 partner): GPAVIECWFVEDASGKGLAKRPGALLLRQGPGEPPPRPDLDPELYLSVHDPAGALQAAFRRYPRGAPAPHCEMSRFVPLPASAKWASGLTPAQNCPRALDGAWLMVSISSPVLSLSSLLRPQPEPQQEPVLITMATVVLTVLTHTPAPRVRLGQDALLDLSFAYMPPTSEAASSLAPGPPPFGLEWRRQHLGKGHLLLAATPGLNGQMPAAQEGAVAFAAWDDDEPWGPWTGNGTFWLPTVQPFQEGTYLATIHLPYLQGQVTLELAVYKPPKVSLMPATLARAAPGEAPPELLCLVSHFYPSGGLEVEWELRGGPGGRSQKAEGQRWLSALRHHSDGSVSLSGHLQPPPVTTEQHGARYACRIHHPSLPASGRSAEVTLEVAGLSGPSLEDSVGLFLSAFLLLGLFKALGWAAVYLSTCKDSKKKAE
TAP, sequence (P30101 25-505 partner): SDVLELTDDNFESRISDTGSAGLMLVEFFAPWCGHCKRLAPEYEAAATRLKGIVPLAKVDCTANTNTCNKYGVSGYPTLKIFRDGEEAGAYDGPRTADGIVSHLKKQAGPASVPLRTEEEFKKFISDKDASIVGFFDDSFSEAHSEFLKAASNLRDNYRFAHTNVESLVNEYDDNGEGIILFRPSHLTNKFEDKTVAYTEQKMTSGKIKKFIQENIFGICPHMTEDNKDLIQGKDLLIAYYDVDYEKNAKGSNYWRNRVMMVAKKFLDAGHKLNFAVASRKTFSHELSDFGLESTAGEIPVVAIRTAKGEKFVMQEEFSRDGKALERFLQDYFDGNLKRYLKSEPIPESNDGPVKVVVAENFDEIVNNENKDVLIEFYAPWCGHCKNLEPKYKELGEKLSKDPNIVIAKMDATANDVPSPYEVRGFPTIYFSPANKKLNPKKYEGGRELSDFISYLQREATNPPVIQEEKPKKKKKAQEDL

CC[C@H](C)[C@H](NC(=O)[C@H](CCC(=O)O)NC(=O)[C@H](CC(=O)O)NC(=O)[C@H](CCCNC(=N)N)NC(=O)[C@@H](NC(=O)[C@H](CC(=O)O)NC(=O)[C@H](C)NC(=O)[C@H](Cc1ccc(O)cc1)NC(=O)[C@@H](NC(=O)[C@H](CCCNC(=N)N)NC(=O)[C@@H]1CCCN1C(=O)CNC(=O)[C@@H](NC(=O)[C@H](CCCNC(=N)N)NC(=O)[C@H](CCSC)NC(=O)[C@H](CC(N)=O)NC(=O)[C@H](CC(=O)O)NC(=O)[C@H](CC(C)C)NC(=O)[C@H](Cc1ccccc1)NC(=O)[C@@H](NC(=O)[C@H](CC(=O)O)NC(=O)[C@H](C)NC(=O)[C@H](CCSC)NC(=O)[C@H](CCC(=O)O)NC(=O)[C@H](CC(C)C)NC(=O)[C@H](C)NC(=O)[C@H](Cc1c[nH]c2ccccc12)NC(=O)[C@@H](N)CO)[C@@H](C)O)C(C)C)[C@@H](C)O)C(C)C)C(=O)N[C@@H](CC(N)=O)C(=O)N[C@@H](CCCCN)C(=O)N[C@@H](CCCNC(=N)N)C(=O)NCC(=O)N[C@@H](CCCNC(=N)N)C(=O)O [ICP47_2–34]
effect of illumination on TAP peptide binding blocked by inhibitor [1]: not affected by illumination; also recorded: did not recover the TAP activity
inhibition at 5 µM (TAP): > 85%

From article PMC6385481 (Chemical Science, 2018)
